# From ChEMBL document CHEMBL3588769, “Synthesis and quantitative structure-activity relationships study for phenylpropenamide derivatives as inhibitors of hepatitis B virus replication” (Eur J Med Chem, 2015)
# What was measured:
# [1] = Cytotoxicity against human HepAD38 cells assessed as reduction in cell viability; format: cell-based
# Hepatitis B virus = assay: Antiviral activity against HBV infected in human HepAD38 cells assessed as inhibition of viral DNA synthesis by dot blot hybridization method; format: functional, organism-based; parameters: -log(1/EC50): unit not given here; conditions: for EC50: Hepatitis B virus, HePAD38
# HepG2 = assay: Cytotoxicity against human HepG2 cells assessed as reduction in cell viability; format: cell-based
-log(1/EC50) (Hepatitis B virus),EC50 (Hepatitis B virus) [µM],SMILES,Activity [1],Activity (HepG2)
0.699,5,O=C(N/C(C(=O)N1CCCCC1)=C(\Br)c1cncc2ccccc12)c1ccccc1,Non-toxic,
1.531,34,O=C(N/C(C(=O)N1CCCCC1)=C(\Cl)c1ccccc1[N+](=O)[O-])c1ccccc1,Non-toxic,
0.2553,1.8,O=C(N/C(C(=O)N1CCCCC1)=C(\Br)c1ccc(F)cc1)c1ccccc1,Non-toxic,
0.07918,1.2,O=C(N/C(C(=O)N1CCCCC1)=C(\Cl)c1ccccc1)c1ccccc1,Non-toxic,Non-toxic
0,1,O=C(N/C(C(=O)N1CCCCC1)=C(\Br)c1cccnc1)c1ccccc1,Non-toxic,
1.398,25,O=C(N/C(C(=O)N1CCCCC1)=C(\Br)c1ccccc1Br)c1ccccc1,Non-toxic,
0.2553,1.8,O=C(N/C(C(=O)N1CCCCC1)=C(\Cl)c1ccccc1F)c1ccccc1,Non-toxic,
0.1761,1.5,O=C(N/C(C(=O)N1CCCCC1)=C(\Br)c1ccccc1F)c1ccccc1,Non-toxic,
-0.02687,0.9,O=C(N/C(C(=O)N1CCCCC1)=C(\Cl)c1cccnc1)c1ccccc1,Non-toxic,
1.544,35,O=C(N/C(C(=O)N1CCCCC1)=C(\Br)c1cccc(Br)c1)c1ccccc1,Non-toxic,
2,> 100,O=C(N/C(C(=O)N1CCCCC1)=C(\Cl)c1ccc(Br)cc1)c1ccccc1,Non-toxic,
0.9031,8,COc1ccc(/C(Br)=C(/NC(=O)c2ccccc2)C(=O)N2CCCCC2)cc1,Non-toxic,
0.8451,7,O=C(N/C(C(=O)N1CCCCC1)=C(\Br)c1cnc2ccccc2c1)c1ccccc1,Non-toxic,
1.591,39,O=C(N/C(C(=O)N1CCCCC1)=C(\Cl)c1ccccc1Cl)c1ccccc1,Non-toxic,
2,> 100,O=C(N/C(C(=O)N1CCCCC1)=C(\Cl)c1ccccc1Br)c1ccccc1,Non-toxic,
0.2304,1.7,N#Cc1ccccc1/C(Cl)=C(/NC(=O)c1ccccc1)C(=O)N1CCCCC1,Non-toxic,
1.398,25,COc1ccc(/C(Cl)=C(/NC(=O)c2ccccc2)C(=O)N2CCCCC2)cc1,Non-toxic,
1.813,65,O=C(N/C(C(=O)N1CCCCC1)=C(\Br)c1ccc(Br)cc1)c1ccccc1,Non-toxic,

-log(1/EC50) (Hepatitis B virus),EC50 (Hepatitis B virus) [µM],SMILES,Activity [1],Activity (HepG2)
-0.04576,0.9,O=C(N/C(C(=O)N1CCCCC1)=C(\Br)c1ccco1)c1ccccc1,Non-toxic,
0.04139,1.1,N#Cc1ccccc1/C(Br)=C(/NC(=O)c1ccccc1)C(=O)N1CCCCC1,Non-toxic,
2,> 100,O=C(N/C(C(=O)N1CCCCC1)=C(\Cl)c1cccc(Br)c1)c1ccccc1,Non-toxic,
0.3424,2.2,O=C(N/C(C(=O)N1CCCCC1)=C(\Cl)c1ccc(F)cc1)c1ccccc1,Non-toxic,
0.3222,2.1,COc1ccccc1/C(Br)=C(/NC(=O)c1ccccc1)C(=O)N1CCCCC1,Non-toxic,
1,10,O=C(N/C(C(=O)N1CCCCC1)=C(\Br)c1ccc(Cl)cc1)c1ccccc1,Non-toxic,
1.322,21,COc1ccccc1/C(Cl)=C(/NC(=O)c1ccccc1)C(=O)N1CCCCC1,Non-toxic,
1.477,30,O=C(N/C(C(=O)N1CCCCC1)=C(\Cl)c1cnc2ccccc2c1)c1ccccc1,Non-toxic,
0.04139,1.1,Cc1ccc(/C(Cl)=C(/NC(=O)c2ccccc2)C(=O)N2CCCCC2)cc1,Non-toxic,
0.4472,2.8,Cc1ccc(/C(Br)=C(/NC(=O)c2ccccc2)C(=O)N2CCCCC2)cc1,Non-toxic,
-0.05061,0.9,Cc1ccccc1/C(Br)=C(/NC(=O)c1ccccc1)C(=O)N1CCCCC1,Non-toxic,
0.9031,8,O=C(N/C(C(=O)N1CCCCC1)=C(\Br)c1ccccc1Cl)c1ccccc1,Non-toxic,
1.708,51,O=C(N/C(C(=O)N1CCCCC1)=C(\Cl)c1ccc(Cl)cc1)c1ccccc1,Non-toxic,
0.7782,6,O=C(N/C(C(=O)N1CCCCC1)=C(\Br)c1ccccc1[N+](=O)[O-])c1ccccc1,Non-toxic,
1.462,29,O=C(N/C(C(=O)N1CCCCC1)=C(\Cl)c1cncc2ccccc12)c1ccccc1,Non-toxic,
0.1139,1.3,O=C(N/C(C(=O)N1CCCCC1)=C(\Br)c1ccccc1)c1ccccc1,Non-toxic,
-0.004365,1,Cc1ccccc1/C(Cl)=C(/NC(=O)c1ccccc1)C(=O)N1CCCCC1,Non-toxic,
-0.09691,0.8,O=C(N/C(C(=O)N1CCCCC1)=C(\Cl)c1ccco1)c1ccccc1,Non-toxic,
